Results taken from ChEMBL document CHEMBL4507268 (2021).

Tests used:
Conditions in all cases: Compound concentration 1.0 uM
[1] = biological target: T1, G protein-coupled receptor kinase 3 (Homo sapiens) (UniProt P35626)
T1 sequence (whole entry): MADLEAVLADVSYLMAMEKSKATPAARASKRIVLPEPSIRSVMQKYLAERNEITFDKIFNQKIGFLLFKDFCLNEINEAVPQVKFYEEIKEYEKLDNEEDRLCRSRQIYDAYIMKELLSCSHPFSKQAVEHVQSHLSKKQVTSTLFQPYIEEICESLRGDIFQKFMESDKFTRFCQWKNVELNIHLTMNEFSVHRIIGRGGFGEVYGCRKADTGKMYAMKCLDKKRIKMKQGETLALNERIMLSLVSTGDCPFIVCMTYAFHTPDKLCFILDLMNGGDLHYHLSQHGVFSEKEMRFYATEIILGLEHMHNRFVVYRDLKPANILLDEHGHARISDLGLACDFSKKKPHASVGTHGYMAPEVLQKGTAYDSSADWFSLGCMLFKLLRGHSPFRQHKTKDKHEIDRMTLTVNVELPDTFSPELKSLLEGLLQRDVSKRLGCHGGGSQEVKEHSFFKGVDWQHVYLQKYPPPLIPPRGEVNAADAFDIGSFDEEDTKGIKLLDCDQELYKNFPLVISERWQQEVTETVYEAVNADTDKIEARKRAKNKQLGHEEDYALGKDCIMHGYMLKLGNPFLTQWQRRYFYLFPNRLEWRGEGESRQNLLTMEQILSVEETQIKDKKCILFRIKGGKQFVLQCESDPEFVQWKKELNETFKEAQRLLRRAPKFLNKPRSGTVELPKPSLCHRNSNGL

[2] = biological target: Insulin-like growth factor 1 receptor (Homo sapiens) (UniProt P08069)
[3] = biological target: T2, Inhibitor of nuclear factor kappa-B kinase subunit epsilon (Homo sapiens) (UniProt Q14164)
T2 sequence (whole entry): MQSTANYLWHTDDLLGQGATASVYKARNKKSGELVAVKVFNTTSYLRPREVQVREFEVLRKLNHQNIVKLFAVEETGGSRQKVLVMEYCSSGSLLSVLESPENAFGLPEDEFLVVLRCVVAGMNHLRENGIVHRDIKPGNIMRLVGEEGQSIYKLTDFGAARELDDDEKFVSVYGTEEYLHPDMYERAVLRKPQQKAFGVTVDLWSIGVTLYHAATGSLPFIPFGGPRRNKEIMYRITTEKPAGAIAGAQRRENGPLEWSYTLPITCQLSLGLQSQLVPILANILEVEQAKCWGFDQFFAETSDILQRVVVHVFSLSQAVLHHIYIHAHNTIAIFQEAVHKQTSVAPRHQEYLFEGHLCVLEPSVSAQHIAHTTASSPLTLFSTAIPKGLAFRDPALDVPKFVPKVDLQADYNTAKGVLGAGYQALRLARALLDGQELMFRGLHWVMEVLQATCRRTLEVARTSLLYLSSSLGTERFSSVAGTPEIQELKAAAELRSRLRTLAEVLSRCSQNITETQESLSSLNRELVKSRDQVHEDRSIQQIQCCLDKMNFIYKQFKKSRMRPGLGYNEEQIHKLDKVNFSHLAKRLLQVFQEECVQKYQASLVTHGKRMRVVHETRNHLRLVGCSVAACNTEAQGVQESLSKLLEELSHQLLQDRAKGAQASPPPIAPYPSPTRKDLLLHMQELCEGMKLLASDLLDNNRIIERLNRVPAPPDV

[4] = biological target: MAP kinase-activated protein kinase 3 (Homo sapiens) (UniProt Q16644)
[5] = biological target: cAMP-dependent protein kinase catalytic subunit beta (Homo sapiens) (UniProt P22694)
[6] = biological target: RAC-beta serine/threonine-protein kinase (Homo sapiens) (UniProt P31751)
[7] = biological target: Protein kinase C zeta type (Homo sapiens) (UniProt Q05513)
[8] = biological target: T3, Serine/threonine-protein kinase TAO3 (Homo sapiens) (UniProt Q9H2K8)
T3 sequence (whole entry): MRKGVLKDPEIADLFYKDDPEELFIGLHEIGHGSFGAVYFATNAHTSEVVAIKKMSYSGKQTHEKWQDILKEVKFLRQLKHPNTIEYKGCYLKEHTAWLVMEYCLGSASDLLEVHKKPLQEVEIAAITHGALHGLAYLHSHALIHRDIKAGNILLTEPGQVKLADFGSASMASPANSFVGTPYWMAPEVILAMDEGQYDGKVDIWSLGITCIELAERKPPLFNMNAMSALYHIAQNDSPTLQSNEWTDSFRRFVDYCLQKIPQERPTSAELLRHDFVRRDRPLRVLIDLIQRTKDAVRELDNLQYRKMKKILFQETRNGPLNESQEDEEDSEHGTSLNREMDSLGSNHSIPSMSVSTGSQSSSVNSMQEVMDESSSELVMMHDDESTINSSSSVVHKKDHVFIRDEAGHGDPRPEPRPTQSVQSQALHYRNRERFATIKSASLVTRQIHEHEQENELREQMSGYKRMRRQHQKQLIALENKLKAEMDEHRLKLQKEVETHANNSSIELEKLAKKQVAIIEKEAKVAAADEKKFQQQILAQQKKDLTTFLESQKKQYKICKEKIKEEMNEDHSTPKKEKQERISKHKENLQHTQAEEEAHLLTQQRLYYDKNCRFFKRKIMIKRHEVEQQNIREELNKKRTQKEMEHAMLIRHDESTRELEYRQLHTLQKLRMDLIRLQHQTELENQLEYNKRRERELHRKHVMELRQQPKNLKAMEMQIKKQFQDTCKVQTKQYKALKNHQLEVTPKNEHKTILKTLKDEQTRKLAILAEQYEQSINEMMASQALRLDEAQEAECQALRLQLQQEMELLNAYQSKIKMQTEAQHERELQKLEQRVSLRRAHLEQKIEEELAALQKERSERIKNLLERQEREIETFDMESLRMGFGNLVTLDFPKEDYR

Measured: % residual kinase activity

Sequence of Protein kinase C zeta type (Homo sapiens) (Q05513 whole entry): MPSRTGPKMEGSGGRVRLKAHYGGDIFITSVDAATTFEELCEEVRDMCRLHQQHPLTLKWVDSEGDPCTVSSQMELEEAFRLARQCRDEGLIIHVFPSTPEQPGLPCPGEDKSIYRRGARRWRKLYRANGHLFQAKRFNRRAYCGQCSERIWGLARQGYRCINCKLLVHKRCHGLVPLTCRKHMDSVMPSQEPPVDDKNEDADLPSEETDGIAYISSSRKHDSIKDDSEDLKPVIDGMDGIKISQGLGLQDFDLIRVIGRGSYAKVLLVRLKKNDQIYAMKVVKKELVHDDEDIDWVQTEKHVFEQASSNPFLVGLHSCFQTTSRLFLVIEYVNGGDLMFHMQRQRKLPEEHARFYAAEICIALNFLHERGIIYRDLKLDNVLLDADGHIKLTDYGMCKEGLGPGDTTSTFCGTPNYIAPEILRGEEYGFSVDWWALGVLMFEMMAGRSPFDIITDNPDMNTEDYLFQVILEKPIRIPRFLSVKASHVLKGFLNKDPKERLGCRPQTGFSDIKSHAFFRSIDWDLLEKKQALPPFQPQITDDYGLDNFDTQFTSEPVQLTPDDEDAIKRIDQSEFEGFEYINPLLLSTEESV
Sequence of MAP kinase-activated protein kinase 3 (Homo sapiens) (Q16644 whole entry, looked up): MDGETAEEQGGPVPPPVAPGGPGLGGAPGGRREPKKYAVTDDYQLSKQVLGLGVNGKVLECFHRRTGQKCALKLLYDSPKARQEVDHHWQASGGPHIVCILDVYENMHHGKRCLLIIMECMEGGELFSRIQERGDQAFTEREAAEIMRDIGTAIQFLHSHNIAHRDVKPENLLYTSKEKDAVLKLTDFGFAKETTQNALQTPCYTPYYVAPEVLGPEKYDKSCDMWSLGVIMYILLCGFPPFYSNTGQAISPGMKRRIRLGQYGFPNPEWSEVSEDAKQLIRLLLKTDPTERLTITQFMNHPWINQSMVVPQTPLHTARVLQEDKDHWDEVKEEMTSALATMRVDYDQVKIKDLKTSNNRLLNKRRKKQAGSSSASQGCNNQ
Sequence of RAC-beta serine/threonine-protein kinase (Homo sapiens) (P31751 whole entry): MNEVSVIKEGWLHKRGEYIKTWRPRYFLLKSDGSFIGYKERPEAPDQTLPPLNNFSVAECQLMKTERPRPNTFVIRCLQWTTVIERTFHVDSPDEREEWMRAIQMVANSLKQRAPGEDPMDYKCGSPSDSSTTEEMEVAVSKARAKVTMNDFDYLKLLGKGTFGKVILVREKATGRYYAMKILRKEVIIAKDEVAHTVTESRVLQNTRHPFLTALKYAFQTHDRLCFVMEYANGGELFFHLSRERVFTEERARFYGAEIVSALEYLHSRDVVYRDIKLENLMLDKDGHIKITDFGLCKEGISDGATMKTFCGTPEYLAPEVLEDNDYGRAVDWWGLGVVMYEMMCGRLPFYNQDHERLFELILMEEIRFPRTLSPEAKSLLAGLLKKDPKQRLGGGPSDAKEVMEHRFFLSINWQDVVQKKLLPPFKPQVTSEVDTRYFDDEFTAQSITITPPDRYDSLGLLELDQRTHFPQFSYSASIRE
Sequence of Insulin-like growth factor 1 receptor (Homo sapiens) (P08069 31-736 limits assumed): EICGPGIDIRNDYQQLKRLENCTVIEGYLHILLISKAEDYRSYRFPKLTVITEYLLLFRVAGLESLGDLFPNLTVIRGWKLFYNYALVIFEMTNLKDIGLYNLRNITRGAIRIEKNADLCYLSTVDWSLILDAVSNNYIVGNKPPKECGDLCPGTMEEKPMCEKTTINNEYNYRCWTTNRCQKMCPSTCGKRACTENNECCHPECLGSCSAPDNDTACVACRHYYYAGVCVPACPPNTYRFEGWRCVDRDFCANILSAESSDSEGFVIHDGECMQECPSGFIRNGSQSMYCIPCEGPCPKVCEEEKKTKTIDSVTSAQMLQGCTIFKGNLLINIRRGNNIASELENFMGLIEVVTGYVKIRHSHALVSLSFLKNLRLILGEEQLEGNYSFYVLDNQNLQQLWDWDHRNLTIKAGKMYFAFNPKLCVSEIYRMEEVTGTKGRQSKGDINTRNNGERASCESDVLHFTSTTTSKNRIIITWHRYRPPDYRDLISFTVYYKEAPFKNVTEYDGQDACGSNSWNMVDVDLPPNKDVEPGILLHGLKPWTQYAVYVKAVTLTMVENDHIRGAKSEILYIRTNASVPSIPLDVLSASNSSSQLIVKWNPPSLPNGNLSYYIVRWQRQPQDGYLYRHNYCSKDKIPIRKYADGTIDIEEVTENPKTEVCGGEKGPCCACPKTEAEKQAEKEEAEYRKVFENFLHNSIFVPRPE
Sequence of Insulin-like growth factor 1 receptor (Homo sapiens) (P08069 741-1367 limits assumed): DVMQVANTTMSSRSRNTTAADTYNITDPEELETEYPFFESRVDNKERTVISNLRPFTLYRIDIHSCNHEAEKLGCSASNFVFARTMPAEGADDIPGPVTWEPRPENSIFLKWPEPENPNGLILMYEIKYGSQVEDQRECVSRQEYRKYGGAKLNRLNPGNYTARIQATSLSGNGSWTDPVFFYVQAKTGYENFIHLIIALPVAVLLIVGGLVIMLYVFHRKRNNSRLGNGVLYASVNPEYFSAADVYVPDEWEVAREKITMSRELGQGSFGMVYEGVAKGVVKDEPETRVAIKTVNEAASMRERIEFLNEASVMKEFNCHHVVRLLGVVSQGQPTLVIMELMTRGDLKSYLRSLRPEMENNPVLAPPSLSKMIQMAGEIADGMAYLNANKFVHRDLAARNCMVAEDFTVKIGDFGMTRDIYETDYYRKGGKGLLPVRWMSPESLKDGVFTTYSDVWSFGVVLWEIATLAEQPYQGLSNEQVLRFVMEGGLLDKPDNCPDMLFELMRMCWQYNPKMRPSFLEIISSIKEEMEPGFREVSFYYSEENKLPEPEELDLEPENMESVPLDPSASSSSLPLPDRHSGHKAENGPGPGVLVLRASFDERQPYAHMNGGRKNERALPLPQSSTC

CN1CCN(c2cnc3c(C4CCN(C(=O)c5ccc(OC(F)(F)F)cc5N)CC4)ncnc3c2)CC1 [BAY-885]
inactive: [1] 92% | [2] 107% | [3] 107% | [4] 113% | [5] 89% | [6] 109% | [7] 114% | [8] 110%
